The results in this text go back to patent US12578343B2, “Selective ACKR3 modulators and uses thereof” (Luxembourg Institute of Health (LIH), priority 2019, dated 2026).

Test [1] deals with T1, ACKR3 (Homo sapiens, UniProt P25106). It is filed as cell-based. On the set-up: expressed in transfected cells; host or cells: U87 cells, transient co-transfection of pNBe vectors.
Target sequence in this assay (P25106 whole entry): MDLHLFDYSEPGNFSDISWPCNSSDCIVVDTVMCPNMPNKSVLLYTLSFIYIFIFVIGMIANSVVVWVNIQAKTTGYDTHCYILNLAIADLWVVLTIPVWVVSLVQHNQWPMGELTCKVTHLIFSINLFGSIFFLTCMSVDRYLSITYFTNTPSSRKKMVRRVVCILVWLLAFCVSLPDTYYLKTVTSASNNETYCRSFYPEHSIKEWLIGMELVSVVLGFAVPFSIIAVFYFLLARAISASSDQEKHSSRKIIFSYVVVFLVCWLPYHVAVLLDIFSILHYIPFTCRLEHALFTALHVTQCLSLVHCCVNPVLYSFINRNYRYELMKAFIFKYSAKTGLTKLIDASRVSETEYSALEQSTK
Target sequence in this assay (P49407 whole entry partner): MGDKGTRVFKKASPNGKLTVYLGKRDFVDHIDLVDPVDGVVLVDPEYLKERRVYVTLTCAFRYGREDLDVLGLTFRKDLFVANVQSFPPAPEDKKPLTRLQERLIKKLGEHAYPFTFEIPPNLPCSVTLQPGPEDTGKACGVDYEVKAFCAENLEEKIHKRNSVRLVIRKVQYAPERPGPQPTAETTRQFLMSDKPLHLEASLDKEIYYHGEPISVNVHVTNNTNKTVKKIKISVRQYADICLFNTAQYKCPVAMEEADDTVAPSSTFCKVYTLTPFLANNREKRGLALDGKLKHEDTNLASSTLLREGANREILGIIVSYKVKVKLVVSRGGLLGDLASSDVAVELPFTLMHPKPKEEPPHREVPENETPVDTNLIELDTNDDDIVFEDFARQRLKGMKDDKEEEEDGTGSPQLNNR
The target of test [2] is T1, ACKR3. Put plainly: ACKR3-mediated depletion of extracellular dynorphin A monitored by its ability to activate KOR (U87-ACKR3 cells). It is filed as cell-based. The arrangement: expressed in transfected cells; for the receptor comparison in the uptake assay, transient pcDNA3.1). As to conditions: pre-treatment of ACKR3-expressing cells, saturating concentration. Here is the method:
(§1) In brief, 1.2×10^6 U87 cells were plated in 10 cm-culture dishes and 48 hours later co-transfected with pNBe vectors encoding GPCRs C-terminally tagged to SmBiT and human β-arrestin-1 or -2 or mini G proteins (mG, engineered GTPase domains of Gα subunits,) N-terminally fused to LgBiT. 48 hours post-transfection cells were harvested, incubated 25 minutes at 37° C. with Nano-Glo Live Cell substrate diluted 200-fold and distributed into white 96-well plates (5×10^4 cells per well). Ligand-induced, β-arrestin and mG recruitment to GPCRs was evaluated with a Mithras LB940 luminometer (Berthold Technologies) for 20 minutes. For concentration-response curves, the signal recorded with a saturating concentration of full agonist for each receptor was set as 100%.
Target sequence in this assay (P25106 whole entry): as the sequence (P25106 whole entry) above

Test [3] concerns the target ACKR3. Description: Binding competition | ACKR3 | IC50 (nM). The text has this:
Table printed on a drawing sheet, FIG. 1 (continued) H
Head of the field: Binding competition | ACKR3 | IC50 (nM)
The patent's description of the figure: FIG. 1 Opioid peptide library screening on ACKR3, hit confirmation and comparison with classical opioid receptors. (A) The ability of 58 compounds, including natural opioid peptides from the four opioid families, variants thereof and small molecule opioid receptor modulators, to induce β-arrestin-2 recruitment to ACKR3, CXCR4 and CXCR3 in U87 cells at a concentration of 5 μM. Positive control chemokines were used at a concentration of 300 nM. Results are expressed as fold change over vehicle-treated cells and presented as mean±S.D of two replicates (B-F) Comparison of potency and efficacy of ACKR3-activating peptides in inducing β-arrestin-1 recruitment to the opioid receptors MOR (B), DOR (C), KOR (D), NOP (E) and ACKR3 (F) in U87 cells. Results are expressed as percentage of indicated agonist response. […] Results from B—H are presented as mean±S.E.M (n ? 3).
Where the first naming reader finds the target: head: Binding competition | ACKR3 | IC50 (nM)

The target of test [4] is T1, ACKR3. Put plainly: Binding competition with Alexa Fluor 647-labelled CXCL12 on U87-ACKR3 cells, flow cytometry. The conditions noted are these: 5 nM CXCL12-AF647, U87-ACKR3 cells. On the set-up: expressed in transfected cells; for the receptor comparison in the uptake assay, transient pcDNA3.1). The protocol:
1.3. Binding Competition Assays
U87-ACKR3 cells were distributed into 96-well plates (1.5×10^5 cells per well) and incubated with a mixture of 5 nM CXCL12-AF647 and unlabelled chemokines or opioid peptides at indicated concentrations for 90 minutes on ice, then washed twice with FACS buffer (PBS, 1% BSA, 0.1% NaN3) at 4° C. Dead cells were excluded using Zombie Green viability dye (BioLegend). ACKR3-negative U87 cells were used to evaluate non-specific binding of CXCL12-AF647. […] The signal obtained for CXCL12-AF647 in the absence of unlabelled chemokines was used to define 100% binding. Ligand binding was quantified by mean fluorescence intensity on a BD FACS Fortessa cytometer (BD Biosciences).
Target sequence in this assay (P25106 whole entry): as above
For orientation: Flow cytometry measures light scatter and fluorescence of single cells or particles in a stream.

For the next test, the system named is smNPCs. Description: Uptake of labelled dynorphin A (1-13) by smNPCs, imaging flow cytometry. It is filed as cell-based, human. As to conditions: 3 μM, 15 minutes pre-treatment. The protocol:
U87 cells derived from human brain glioblastoma were obtained through the NIH AIDS Reagent Program from Dr. Deng and Dr. Littman. U87 stably expressing ACKR3 and CXCR4 were generated as previously described in Szpakowska, M. et al. Different contributions of chemokine N-terminal features attest to a different ligand binding mode and a bias towards activation of ACKR3/CXCR7 compared with CXCR4 and CXCR3. Br J Pharmacol 175, 1419-1438 (2018). U87 cells were grown in Dulbecco's modified Eagle medium (DMEM) supplemented with 15% foetal bovine serum and penicillin/streptomycin (100 Units/ml and 100 μg/ml). U87-ACKR3 and U87-CXCR4 were maintained under puromycin (1 μg/ml) selective pressure. smNPCs (small molecule neural precursor cells) derived from a healthy donor (C1-1) whose informed consent was obtained, were grown on Geltrex™-coated surface in N2B27 medium supplemented with 0.5 μM Purmorphamine, 3 μM CHIR 99021 and 150 μM ascorbic acid. N2B27 medium consisted of DMEM/F12 and NeuroBasal medium 50:50 with 0.5% N2 supplement, 1% B27 supplement lacking vitamin A, 1% GlutaMAX and 1% penicilin/streptomycin. Medium was renewed every other day.
Cells were distributed into 96-well plates (2×10^5 cells/well in Opti-MEM for U87 and U87-ACKR3 and 3×10^5 cells/well in N2B27 medium for smNPCs). […] For comparison of labelled opioid peptide-uptake by ACKR3 or classical opioid receptors, 1.2×10^6 U87 cells were seeded in 10-cm dishes and transfected 48 hours later with 4 μg pcDNA3.1 plasmid encoding ACKR3 or KOR, MOR or NOP. 48 hours post transfection, cells were harvested and treated as described above. Dead cells were excluded using Zombie NIR or Zombie Green viability dye (BioLegend) for FAM-labelled peptides and Cy5-labelled peptides, respectively. Images of 1×10^4 in-focus, living single cells were acquired with an ImageStream MKII imaging flow cytometer (Amnis) using 40× magnification (60× magnification for smNPCs). Samples were analysed using Ideas6.2 software. The number of spots per cell was determined using a mask-based software wizard.

The next test has as its target KOR (Homo sapiens, UniProt P41145). Put plainly: β-arrestin-1 recruitment to KOR (NanoBiT, U87 cells). Type of test: cell-based. The arrangement: expressed in transfected cells; host or cells: U87 cells, transient co-transfection of pNBe vectors. As to conditions: concentrations as high as 3 μM. Here is the method:
as §1
On the technique in general: Recruitment of arrestin is a read-out of receptor activation apart from second messengers.

In test [5] the test system is 24 other chemokine receptors. Description: β-arrestin recruitment to all other chemokine receptors (panel, NanoBiT, U87 cells). Type of test: cell-based, human. The conditions noted are these: 3 μM. The protocol:
as §1

For the next test, the target named is T2, mouse ACKR3 (mACKR3) (Mus musculus, UniProt P56485).
T2 construct: expressed in transfected cells; host or cells: U87 cells
Put plainly: β-arrestin-1 recruitment to mouse ACKR3. Type of test: cell-based. Here is the method:
as §1

The target of the next test is T3, NOP (Homo sapiens, UniProt P41146).
T3 construct: expressed in transfected cells; host or cells: U87 cells, transient co-transfection of pNBe vectors
Put plainly: β-arrestin-1 recruitment to NOP (NanoBiT, U87 cells). As to conditions: concentrations as high as 3 μM. It is filed as cell-based. The protocol:
as §1

The target of the next test is T4, DOR (Homo sapiens, UniProt P41143).
T4 construct: expressed in transfected cells; host or cells: U87 cells, transient co-transfection of pNBe vectors
Description: β-arrestin-1 recruitment to DOR (NanoBiT, U87 cells). Type of test: cell-based. As to conditions: concentrations as high as 3 μM. Here is the method:
as §1

T4 sequence (P41143 whole entry): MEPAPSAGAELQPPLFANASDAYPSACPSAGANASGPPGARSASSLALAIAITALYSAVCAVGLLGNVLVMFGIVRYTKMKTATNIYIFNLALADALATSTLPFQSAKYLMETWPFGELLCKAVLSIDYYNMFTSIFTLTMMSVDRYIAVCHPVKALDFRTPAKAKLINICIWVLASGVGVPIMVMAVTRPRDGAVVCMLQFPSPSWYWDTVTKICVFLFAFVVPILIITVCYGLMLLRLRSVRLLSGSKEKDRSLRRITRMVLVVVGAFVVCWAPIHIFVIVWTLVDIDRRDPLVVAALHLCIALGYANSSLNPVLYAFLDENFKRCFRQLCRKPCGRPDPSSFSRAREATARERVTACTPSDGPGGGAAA
Sequence of KOR (P41145 whole entry): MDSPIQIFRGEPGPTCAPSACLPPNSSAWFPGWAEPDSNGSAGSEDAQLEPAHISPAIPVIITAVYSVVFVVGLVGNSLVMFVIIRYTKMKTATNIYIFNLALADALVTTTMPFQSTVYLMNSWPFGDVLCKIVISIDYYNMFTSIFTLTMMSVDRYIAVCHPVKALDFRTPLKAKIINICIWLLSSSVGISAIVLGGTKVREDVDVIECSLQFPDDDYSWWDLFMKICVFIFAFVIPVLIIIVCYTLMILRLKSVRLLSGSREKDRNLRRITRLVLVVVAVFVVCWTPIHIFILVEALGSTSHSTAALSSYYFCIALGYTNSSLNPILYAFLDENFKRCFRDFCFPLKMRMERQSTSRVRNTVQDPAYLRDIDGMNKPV
T2 sequence (P56485 whole entry): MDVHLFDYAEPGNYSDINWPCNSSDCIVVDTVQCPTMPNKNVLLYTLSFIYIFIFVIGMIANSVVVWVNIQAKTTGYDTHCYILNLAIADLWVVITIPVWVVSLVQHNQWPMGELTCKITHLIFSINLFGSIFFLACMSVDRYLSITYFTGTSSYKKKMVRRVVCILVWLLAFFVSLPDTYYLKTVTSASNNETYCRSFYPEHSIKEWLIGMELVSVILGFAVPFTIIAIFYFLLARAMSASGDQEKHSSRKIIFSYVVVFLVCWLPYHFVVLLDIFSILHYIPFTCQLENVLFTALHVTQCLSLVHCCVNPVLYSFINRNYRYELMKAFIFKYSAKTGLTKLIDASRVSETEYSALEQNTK
T2 sequence (P49407 whole entry partner): as the sequence (P49407 whole entry partner) above
T3 sequence (P41146 whole entry): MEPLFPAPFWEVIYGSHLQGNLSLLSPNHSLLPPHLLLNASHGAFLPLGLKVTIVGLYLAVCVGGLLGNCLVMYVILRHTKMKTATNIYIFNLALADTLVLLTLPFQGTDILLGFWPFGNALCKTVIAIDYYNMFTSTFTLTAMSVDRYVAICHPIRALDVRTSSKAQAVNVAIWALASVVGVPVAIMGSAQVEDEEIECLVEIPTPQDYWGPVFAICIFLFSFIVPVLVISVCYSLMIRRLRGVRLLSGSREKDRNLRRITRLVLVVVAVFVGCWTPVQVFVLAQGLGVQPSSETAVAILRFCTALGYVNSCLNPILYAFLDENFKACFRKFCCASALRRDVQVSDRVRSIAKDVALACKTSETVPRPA

Consider `CSCC[C@H](NC(=O)[C@H](Cc1ccccc1)NC(=O)CNC(=O)CNC(=O)[C@@H](N)Cc1ccccc1)C(=O)N[C@@H](CCCNC(=N)N)C(=O)N[C@@H](CCCNC(=N)N)C(=O)N[C@@H](CCCCN)C(N)=O` [LIH383], for which, at ACKR3 [1], the “EC50 (range in words)” value is “subnanomolar range” and the “potency relative to known ACKR3 agonists such as compound 18” value worked out at 20 times. The “reversal of the ACKR3-mediated impairment of dynorphin A potency to activate KOR by pre-treatment” value on ACKR3 [2] is on record as “reversed”. Moreover, at ACKR3 [3], the IC50 (commonly the midpoint of a concentration-inhibition curve) worked out at 4 nM. For the same molecule, the “competition with CXCL12-AF647 for ACKR3 binding” value on ACKR3 [4] was “low nanomolar concentrations”. The “effect of pretreatment on uptake of labelled dynorphin A (1-13) by smNPCs” value with smNPCs is “significantly reduced”. Moreover, the “activation or inhibition of KOR” value at KOR is reported as “no activation or inhibition”. In addition, in test [5], the “β-arrestin recruitment to the other chemokine receptors” value was “no activation or inhibition”. In addition, the “agonist activity on mouse ACKR3 compared with human ACKR3” value on mouse ACKR3 (mACKR3) was “equivalent activity on human and mouse ACKR3”. Also, at NOP, the “activation or inhibition of NOP” value is on record as “no activation or inhibition”. Also, the “activation or inhibition of DOR” value on DOR is “no activation or inhibition”.
